Results on one molecule are retold here after US12403107B2, “Lipid pharmaceutical preparation and application thereof” (HUZHOU INNOVATION PHARMACEUTICAL CO., LTD., priority 2019, dated 2025).

The conditions of data set [1]: dose 60 mg/kg, infused into the muscle at a constant rate t = 0-2 hours, cited from earlier work.
Data set [2] is described as follows: Blood lidocaine concentration after 2-hour constant-rate intramuscular infusion, literature (Ikeda et al.). It is filed as in vivo, Rats. The following applies: rat, dose 60 mg/kg, infusion t = 0-2 hours, calculated with elimination half-life = 2 hours, read-out: blood drug concentration of lidocaine.

Where two headings read alike, the source gives them in different places.

For `CCN(CC)CC(=O)Nc1c(C)cccc1C` [preparation in the reference, lidocaine], the “blood drug concentration of lidocaine” value is 0 ng/mL in data set [1] (time 0 hour); 1900 ng/mL in data set [1] (time 0.25 hour); 5800 ng/mL in data set [1] (time 0.5 hour); 8200 ng/mL in data set [1] (time 1 hour); 10500 ng/mL in data set [1] (time 2 hour); 800 ng/mL in data set [1] (time 4 hour). The concentration at 6 h in data set [2] (time 6 hour) is 400 ng/mL. Besides, the concentration at 8 h in data set [2] (time 8 hour) was 200 ng/mL. Moreover, in data set [2] (time 12 hour), the concentration at 12 h is 100 ng/mL. In data set [2] (time 15 hour), the concentration at 15 h is 35.3 ng/mL. For the same molecule, the concentration at 18 h in data set [2] (time 18 hour) is 6.25 ng/mL. Moreover, the concentration at 24 h in data set [2] (time 24 hour) was 1.6 ng/mL. Moreover, the concentration at 30 h in data set [2] (time 30 hour) was 0.2 ng/mL. Moreover, the concentration at 36 h in data set [2] (time 36 hour) was 0 ng/mL. The concentration at 42 h in data set [2] (time 42 hour) was 0 ng/mL. Further, in data set [2] (time 48 hour), the concentration at 48 h is 0 ng/mL. Besides, the concentration at 54 h in data set [2] (time 54 hour) is 0 ng/mL. For the same molecule, the concentration at 60 h in data set [2] (time 60 hour) is 0 ng/mL. Further, the concentration at 66 h in data set [2] (time 66 hour) was 0 ng/mL. Also, the concentration at 72 h in data set [2] (time 72 hour) is 0 ng/mL.
